Experimental data published in patent US20260232616A1, “USE OF SIVELESTAT IN ANALGESIA” (SHANGHAI HUILUN PHARMACEUTICAL CO., LTD., priority 2023, published 2026).
Marks after values point to notes of the source that are not given here.

System: rat model of postoperative pain
Assay: Mechanical allodynia testing in a rat model of postoperative pain (hind paw incision)
Type: in vivo
Conditions: for Mechanical allodynia threshold (PWT (g)): single dose
[1] = Sivelestat sodium 100 mg/kg IP, 0.5 h
[2] = Sivelestat sodium 100 mg/kg IP, 1 h
[3] = Sivelestat sodium 100 mg/kg IP, 2 h
[4] = Sivelestat sodium 150 mg/kg IP, 0.5 h
[5] = Sivelestat sodium 150 mg/kg IP, 1 h
[6] = Sivelestat sodium 150 mg/kg IP, 2 h
[7] = Sivelestat sodium 150 mg/kg IP, 6 h
[8] = Sivelestat sodium 200 mg/kg IP, 0.5 h
[9] = Sivelestat sodium 200 mg/kg IP, 1 h
[10] = Sivelestat sodium 200 mg/kg IP, 2 h
[11] = Sivelestat sodium 300 mg/kg IP, 0.5 h
[12] = Sivelestat sodium 300 mg/kg IP, 1 h
[13] = Sivelestat sodium 300 mg/kg IP, 2 h

CC(C)(C)C(=O)Oc1ccc(S(=O)(=O)Nc2ccccc2C(=O)NCC(=O)O)cc1 [Sivelestat sodium, sivelestat sodium]
% MPE (anti-allodynic effect) [1]: 25.2* %
% MPE (anti-allodynic effect) [2]: 42.4*** %
% MPE (anti-allodynic effect) [3]: 44.1*** %
Mechanical allodynia threshold (PWT (g)) [1]: 5.5 g
Mechanical allodynia threshold (PWT (g)) [2]: 7.8 g
Mechanical allodynia threshold (PWT (g)) [3]: 8.3 g
% MPE (anti-allodynic effect) [4]: 31.4*** %
% MPE (anti-allodynic effect) [5]: 51.1*** %
% MPE (anti-allodynic effect) [6]: 48.4*** %
% MPE (anti-allodynic effect) [7]: 11.3%
Mechanical allodynia threshold (PWT (g)) [4]: 6.3 g
Mechanical allodynia threshold (PWT (g)) [5]: 8.9 g
Mechanical allodynia threshold (PWT (g)) [6]: 8.8 g
Mechanical allodynia threshold (PWT (g)) [7]: 3.9 g
% MPE (anti-allodynic effect) [8]: 32.6*** %
% MPE (anti-allodynic effect) [9]: 55.1*** %
% MPE (anti-allodynic effect) [10]: 45.3*** %
Mechanical allodynia threshold (PWT (g)) [8]: 6.4 g
Mechanical allodynia threshold (PWT (g)) [9]: 9.4 g
Mechanical allodynia threshold (PWT (g)) [10]: 8.4 g
% MPE (anti-allodynic effect) [11]: 37.5*** %
% MPE (anti-allodynic effect) [12]: 49*** %
% MPE (anti-allodynic effect) [13]: 52.6*** %
Mechanical allodynia threshold (PWT (g)) [11]: 7.0 g
Mechanical allodynia threshold (PWT (g)) [12]: 8.6 g
Mechanical allodynia threshold (PWT (g)) [13]: 9.3 g
duration of a high level of analgesic efficacy (rat postoperative pain model, conclusion from Embodiment 1): more than 6 h
